Article PMC6979384, “Characterization of the plant homeodomain (PHD) reader family for their histone tail interactions” (Epigenetics & Chromatin, 2020)

Columns and labels:
Assay in all cases: Histone peptide microarray
Assay type in all cases: binding, human
[1] = test system: ING5; conditions: total n = 4; for Array Heatmap signal, ING5: sheet "Array Heatmap", GST-tagged reader, histone peptide array
How it was run: (§1)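 Steps: express and purify GST-tagged PHD reader; incubate 0.5 μM protein on a peptide microarray (293 histone peptides, single or combined PTMs) following an optimized protocol; average signal across 4 replicates.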

[2] = test system: MORC3 (CW); conditions: total n = 4; for Array Heatmap signal, MORC3 (CW): sheet "Array Heatmap", GST-tagged reader, histone peptide array
How it was run: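 Readout is array binding signal, reported as the mean and standard deviation over four replicates. Each purified GST-fused PHD domain was incubated at 0.5 μM with a library of 293 modified histone peptides.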

[3] = test system: KDM7A; conditions: total n = 4; for Array Heatmap signal, KDM7A: sheet "Array Heatmap", GST-tagged reader, histone peptide array
How it was run: as §1

[4] = test system: ING2; conditions: total n = 4; for Array Heatmap signal, ING2: sheet "Array Heatmap", GST-tagged reader, histone peptide array
How it was run: as §1

[5] = test system: PHF23; conditions: total n = 4; for Array Heatmap signal, PHF23: sheet "Array Heatmap", GST-tagged reader, histone peptide array
How it was run: as §1

[6] = test system: RAG2; conditions: total n = 4; for Array Heatmap signal, RAG2: sheet "Array Heatmap", GST-tagged reader, histone peptide array
How it was run: as §1

[7] = test system: KDM5B (1); conditions: total n = 4; for Array Heatmap signal, KDM5B (1): sheet "Array Heatmap", GST-tagged reader, histone peptide array
How it was run: as §1

[8] = test system: CHD5 (PCC); conditions: total n = 4; for Array Heatmap signal, CHD5 (PCC): sheet "Array Heatmap", GST-tagged reader, histone peptide array
How it was run: as §1

[9] = test system: DIDO1; conditions: total n = 4; for Array Heatmap signal, DIDO1: sheet "Array Heatmap", GST-tagged reader, histone peptide array
How it was run: as §1

[10] = test system: DPF2 (PPC2W2); conditions: total n = 4; for Array Heatmap signal, DPF2 (PPC2W2): sheet "Array Heatmap", GST-tagged reader, histone peptide array
How it was run: as §1

[11] = test system: TAF3; conditions: total n = 4; for Array Heatmap signal, TAF3: sheet "Array Heatmap", GST-tagged reader, histone peptide array
How it was run: as §1

[12] = test system: KDM5B (3); conditions: total n = 4; for Array Heatmap signal, KDM5B (3): sheet "Array Heatmap", GST-tagged reader, histone peptide array
How it was run: as §1

[13] = test system: ING3; conditions: total n = 4; for Array Heatmap signal, ING3: sheet "Array Heatmap", GST-tagged reader, histone peptide array
How it was run: as §1

[14] = test system: SP140L; conditions: total n = 4; for Array Heatmap signal, SP140L: sheet "Array Heatmap", GST-tagged reader, histone peptide array
How it was run: as §1

[15] = test system: KDM5A (1); conditions: total n = 4; for Array Heatmap signal, KDM5A (1): sheet "Array Heatmap", GST-tagged reader, histone peptide array
How it was run: as §1

[16] = test system: BAZ2B; conditions: total n = 4; for Array Heatmap signal, BAZ2B: sheet "Array Heatmap", GST-tagged reader, histone peptide array
How it was run: as §1

[17] = test system: BPTF (PB); conditions: total n = 4; for Array Heatmap signal, BPTF (PB): sheet "Array Heatmap", GST-tagged reader, histone peptide array
How it was run: as §1

[18] = test system: TRIM66 (PB); conditions: total n = 4; for Array Heatmap signal, TRIM66 (PB): sheet "Array Heatmap", GST-tagged reader, histone peptide array
How it was run: as §1

[19] = test system: PHF8; conditions: total n = 4; for Array Heatmap signal, PHF8: sheet "Array Heatmap", GST-tagged reader, histone peptide array
How it was run: as §1

[20] = test system: PHF2; conditions: total n = 4; for Array Heatmap signal, PHF2: sheet "Array Heatmap", GST-tagged reader, histone peptide array
How it was run: as §1

[21] = test system: CHD5 (PPCC); conditions: total n = 4; for Array Heatmap signal, CHD5 (PPCC): sheet "Array Heatmap", GST-tagged reader, histone peptide array
How it was run: as §1

[22] = test system: ING4; conditions: total n = 4; for Array Heatmap signal, ING4: sheet "Array Heatmap", GST-tagged reader, histone peptide array
How it was run: as §1

[23] = test system: MLL5; conditions: total n = 4; for Array Heatmap signal, MLL5: sheet "Array Heatmap", GST-tagged reader, histone peptide array
How it was run: as §1

[24] = test system: PHRF1 (RP); conditions: total n = 4; for Array Heatmap signal, PHRF1 (RP): sheet "Array Heatmap", GST-tagged reader, histone peptide array
How it was run: as §1

[25] = test system: PHF13; conditions: total n = 4; for Array Heatmap signal, PHF13: sheet "Array Heatmap", GST-tagged reader, histone peptide array
How it was run: as §1

[26] = test system: PHF21A; conditions: total n = 4; for Array Heatmap signal, PHF21A: sheet "Array Heatmap", GST-tagged reader, histone peptide array
How it was run: as §1

[27] = test system: AIRE (PP); conditions: total n = 4; for Array Heatmap signal, AIRE (PP): sheet "Array Heatmap", GST-tagged reader, histone peptide array
How it was run: as §1

[28] = test system: KDM5A (3); conditions: total n = 4; for Array Heatmap signal, KDM5A (3): sheet "Array Heatmap", GST-tagged reader, histone peptide array
How it was run: as §1

[29] = test system: KDM4C (TTP); conditions: total n = 4; for Array Heatmap signal, KDM4C (TTP): sheet "Array Heatmap", GST-tagged reader, histone peptide array
How it was run: as §1

[30] = test system: CHD4 (PPCC); conditions: total n = 4; for Array Heatmap signal, CHD4 (PPCC): sheet "Array Heatmap", GST-tagged reader, histone peptide array
How it was run: as §1

[31] = test system: ING1; conditions: total n = 4; for Array Heatmap signal, ING1: sheet "Array Heatmap", GST-tagged reader, histone peptide array
How it was run: as §1

Substance: H3K9ac + K14ac: H3 1-20
- Array Heatmap signal (histone peptide microarray) ([1]; GST-tagged ING5, sheet Array Heatmap, each array performed twice): 0.3504
- Array Heatmap signal (histone peptide microarray) ([2]; GST-tagged MORC3 (CW = CW-type Zn-finger), sheet Array Heatmap, each array performed twice): 0.5873
- Array Heatmap signal (histone peptide microarray) ([3]; GST-tagged KDM7A, sheet Array Heatmap, each array performed twice): 0.4362
- Array Heatmap signal (histone peptide microarray) ([4]; GST-tagged ING2, sheet Array Heatmap, each array performed twice): 0.5932
- Array Heatmap signal (histone peptide microarray) ([5]; GST-tagged PHF23, sheet Array Heatmap, each array performed twice): 0.5024
- Array Heatmap signal (histone peptide microarray) ([6]; GST-tagged RAG2, sheet Array Heatmap, each array performed twice): 0.2862
- Array Heatmap signal (histone peptide microarray) ([7]; GST-tagged KDM5B (1), sheet Array Heatmap, each array performed twice): 0.9142
- Array Heatmap signal (histone peptide microarray) ([8]; GST-tagged CHD5 (PCC = PHD + Dual Chromodomain), sheet Array Heatmap, each array performed twice): 0.9958
- Array Heatmap signal (histone peptide microarray) ([9]; GST-tagged DIDO1, sheet Array Heatmap, each array performed twice): 0.6252
- Array Heatmap signal (histone peptide microarray) ([10]; GST-tagged DPF2 (PPC2W2 = Dual PHD + C2W2-type Zn-finger), sheet Array Heatmap, each array performed twice): 1
- Array Heatmap signal (histone peptide microarray) ([11]; GST-tagged TAF3, sheet Array Heatmap, each array performed twice): 0.3149
- Array Heatmap signal (histone peptide microarray) ([12]; GST-tagged KDM5B (3), sheet Array Heatmap, each array performed twice): 0.6203
- Array Heatmap signal (histone peptide microarray) ([13]; GST-tagged ING3, sheet Array Heatmap, each array performed twice): 0.4549
- Array Heatmap signal (histone peptide microarray) ([14]; GST-tagged SP140L, sheet Array Heatmap, each array performed twice): 0.3541
- Array Heatmap signal (histone peptide microarray) ([15]; GST-tagged KDM5A (1), sheet Array Heatmap, each array performed twice): 0.5569
- Array Heatmap signal (histone peptide microarray) ([16]; GST-tagged BAZ2B, sheet Array Heatmap, each array performed twice): 1
- Array Heatmap signal (histone peptide microarray) ([17]; GST-tagged BPTF (PB = PHD + Bromodomain), sheet Array Heatmap, each array performed twice): 0.3651
- Array Heatmap signal (histone peptide microarray) ([18]; GST-tagged TRIM66 (PB = PHD + Bromodomain), sheet Array Heatmap, each array performed twice): 0.9112
- Array Heatmap signal (histone peptide microarray) ([19]; GST-tagged PHF8, sheet Array Heatmap, each array performed twice): 0.3842
- Array Heatmap signal (histone peptide microarray) ([20]; GST-tagged PHF2, sheet Array Heatmap, each array performed twice): 0.4774
- Array Heatmap signal (histone peptide microarray) ([21]; GST-tagged CHD5 (PPCC = Dual PHD + Dual Chromodomain), sheet Array Heatmap, each array performed twice): 0.6001
- Array Heatmap signal (histone peptide microarray) ([22]; GST-tagged ING4, sheet Array Heatmap, each array performed twice): 0.4734
- Array Heatmap signal (histone peptide microarray) ([23]; GST-tagged MLL5, sheet Array Heatmap, each array performed twice): 0.5394
- Array Heatmap signal (histone peptide microarray) ([24]; GST-tagged PHRF1 (RP), sheet Array Heatmap, each array performed twice): 1
- Array Heatmap signal (histone peptide microarray) ([25]; GST-tagged PHF13, sheet Array Heatmap, each array performed twice): 0.6041
- Array Heatmap signal (histone peptide microarray) ([26]; GST-tagged PHF21A, sheet Array Heatmap, each array performed twice): 0.5392
- Array Heatmap signal (histone peptide microarray) ([27]; GST-tagged AIRE (PP), sheet Array Heatmap, each array performed twice): 0.699
- Array Heatmap signal (histone peptide microarray) ([28]; GST-tagged KDM5A (3), sheet Array Heatmap, each array performed twice): 0.5178
- Array Heatmap signal (histone peptide microarray) ([29]; GST-tagged KDM4C (TTP = Tandem Tudor domain + PHD), sheet Array Heatmap, each array performed twice): 0.5191
- Array Heatmap signal (histone peptide microarray) ([30]; GST-tagged CHD4 (PPCC = Dual PHD + Dual Chromodomain), sheet Array Heatmap, each array performed twice): 0.673
- Array Heatmap signal (histone peptide microarray) ([31]; GST-tagged ING1, sheet Array Heatmap, each array performed twice): 0.5104

Substance: H3K9ac + S10p: H3 1-20
- Array Heatmap signal, ING5 [1]: 0.3597
- Array Heatmap signal, MORC3 (CW) [2]: 0.3729
- Array Heatmap signal, KDM7A [3]: 0.5012
- Array Heatmap signal, ING2 [4]: 0.597
- Array Heatmap signal, PHF23 [5]: 0.5104
- Array Heatmap signal, RAG2 [6]: 0.2427
- Array Heatmap signal, KDM5B (1) [7]: 0.6761
- Array Heatmap signal, CHD5 (PCC) [8]: 0.846
- Array Heatmap signal, DIDO1 [9]: 0.6052
- Array Heatmap signal, DPF2 (PPC2W2) [10]: 0.6808
- Array Heatmap signal, TAF3 [11]: 0.2808
- Array Heatmap signal, KDM5B (3) [12]: 0.53
- Array Heatmap signal, ING3 [13]: 0.4478
- Array Heatmap signal, SP140L [14]: 0.3709
- Array Heatmap signal, KDM5A (1) [15]: 0.5046
- Array Heatmap signal, BAZ2B [16]: 0.4929
- Array Heatmap signal, BPTF (PB) [17]: 0.3364
- Array Heatmap signal, TRIM66 (PB) [18]: 0.5818
- Array Heatmap signal, PHF8 [19]: 0.3696
- Array Heatmap signal, PHF2 [20]: 0.4212
- Array Heatmap signal, CHD5 (PPCC) [21]: 0.5687
- Array Heatmap signal, ING4 [22]: 0.4766
- Array Heatmap signal, MLL5 [23]: 0.5353
- Array Heatmap signal, PHRF1 (RP) [24]: 0.4935
- Array Heatmap signal, PHF13 [25]: 0.5949
- Array Heatmap signal, PHF21A [26]: 0.4788
- Array Heatmap signal, AIRE (PP) [27]: 0.6057
- Array Heatmap signal, KDM5A (3) [28]: 0.462
- Array Heatmap signal, KDM4C (TTP) [29]: 0.5441
- Array Heatmap signal, CHD4 (PPCC) [30]: 0.5496
- Array Heatmap signal, ING1 [31]: 0.4982

Substance: H3K9me1: H3 1-20 [Peptide H3K9me1]
- Array Heatmap signal, ING5 [1]: 0.3437
- Array Heatmap signal, MORC3 (CW) [2]: 0.4491
- Array Heatmap signal, KDM7A [3]: 0.3983
- Array Heatmap signal, ING2 [4]: 0.5783
- Array Heatmap signal, PHF23 [5]: 0.5057
- Array Heatmap signal, RAG2 [6]: 0.2526
- Array Heatmap signal, KDM5B (1) [7]: 0.68
- Array Heatmap signal, CHD5 (PCC) [8]: 0.8558
- Array Heatmap signal, DIDO1 [9]: 0.6415
- Array Heatmap signal, DPF2 (PPC2W2) [10]: 0.6871
- Array Heatmap signal, TAF3 [11]: 0.2561
- Array Heatmap signal, KDM5B (3) [12]: 0.4949
- Array Heatmap signal, ING3 [13]: 0.4876
- Array Heatmap signal, SP140L [14]: 0.3427
- Array Heatmap signal, KDM5A (1) [15]: 0.4835
- Array Heatmap signal, BAZ2B [16]: 0.4746
- Array Heatmap signal, BPTF (PB) [17]: 0.3459
- Array Heatmap signal, TRIM66 (PB) [18]: 0.6422
- Array Heatmap signal, PHF8 [19]: 0.3494
- Array Heatmap signal, PHF2 [20]: 0.4569
- Array Heatmap signal, CHD5 (PPCC) [21]: 0.5585
- Array Heatmap signal, ING4 [22]: 0.4656
- Array Heatmap signal, MLL5 [23]: 0.5407
- Array Heatmap signal, PHRF1 (RP) [24]: 0.6479
- Array Heatmap signal, PHF13 [25]: 0.594
- Array Heatmap signal, PHF21A [26]: 0.4979
- Array Heatmap signal, AIRE (PP) [27]: 0.5694
- Array Heatmap signal, KDM5A (3) [28]: 0.4739
- Array Heatmap signal, KDM4C (TTP) [29]: 0.5061
- Array Heatmap signal, CHD4 (PPCC) [30]: 0.6171
- Array Heatmap signal, ING1 [31]: 0.4934
